Source: PubChem BioAssay (NCI)
Several values for one entry are separate records, joined by “and”; a condition that tells them apart may be missing. Equal entries are not always repeated.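 Exposure lasted 48 hours, with cells grown in 96-well plates and compounds tested at five concentrations. Here, GI50 denotes the concentration required for 50% inhibition of growth. TGI: total growth inhibition.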

Legend:
Assay in all cases: NCI anticancer screen, dose series, 48 h
SF-539 CNS = test system: SF-539 CNS
HOP-92 NSCLC = test system: HOP-92 NSCLC
SN12C renal = test system: SN12C renal
NCI-H226 lung = test system: NCI-H226 lung
UO-31 renal = test system: UO-31 renal
CAKI-1 renal = test system: CAKI-1 renal
HCT-116 colon = test system: HCT-116 colon
SNB-75 CNS = test system: SNB-75 CNS
KM12 colon = test system: KM12 colon
A498 renal = test system: A498 renal

SMILES | GI50 (SF-539 CNS) | TGI (SF-539 CNS) | GI50 (HOP-92 NSCLC) | TGI (HOP-92 NSCLC) | GI50 (SN12C renal) | TGI (SN12C renal) | GI50 (NCI-H226 lung) | TGI (NCI-H226 lung) | GI50 (UO-31 renal) | TGI (UO-31 renal) | GI50 (CAKI-1 renal) | TGI (CAKI-1 renal) | GI50 (HCT-116 colon) | TGI (HCT-116 colon) | GI50 (SNB-75 CNS) | TGI (SNB-75 CNS) | GI50 (KM12 colon) | TGI (KM12 colon) | GI50 (A498 renal) | TGI (A498 renal)
COc1ccc2c(CN3CCCC[C@H]3O)cc3cc4c(cc3c2c1)OCO4 | 375 nM | 1.83 µM | 0.241 µM | 2.4 µM | 0.326 µM | 4.06 µM | 0.251 µM | 0.589 µM | 310 nM | 5.67 µM | 0.518 µM | 5.66 µM | 0.223 µM | 10.7 µM | 0.5 µM | 1.86 µM | 480 nM | 5.22 µM | 0.542 µM | 1.47 µM
CCOC(=O)NN1C(=O)C(=P(c2ccccc2)(c2ccccc2)c2ccccc2)C(C(=O)OC)=C1C |  | > 100 µM |  | > 100 µM |  | > 100 µM |  | > 100 µM |  | > 100 µM |  | > 100 µM |  | > 100 µM |  | > 100 µM |  | > 100 µM |  | > 100 µM
O=C1N=C2N=C(c3ccc(Cl)cc3)N(c3ccc(Cl)cc3)N2Sc2ccccc21 |  | > 100 µM |  | > 100 µM |  | > 100 µM |  | > 100 µM |  | > 100 µM |  | > 100 µM |  | > 100 µM |  | > 100 µM |  | > 100 µM |  | > 100 µM
CCCCS(=O)(=O)c1cc(Nc2ccc(O)c3c2C(=O)c2ccccc2C3=O)ccc1C | > 100000 nM | > 100 µM | > 100 µM | > 100 µM | > 100 µM | > 100 µM | > 100 µM | > 100 µM | > 100000 nM | > 100 µM | > 100 µM | > 100 µM | > 100 µM | > 100 µM | 21.9 µM | > 100 µM | > 100000 nM | > 100 µM | > 100 µM | > 100 µM
COc1ccc(C(=O)Cn2c(C(=O)c3ccc(Cl)cc3)nc(-c3ccccc3)c2-c2ccccc2)cc1 | 52300 nM | > 100 µM | 7.43 µM | 83.1 µM | > 100 µM | > 100 µM | > 100 µM | > 100 µM | > 100000 nM | > 100 µM | 31.2 µM | > 100 µM | > 100 µM | > 100 µM | 85.8 µM | > 100 µM | > 100000 nM | > 100 µM | 34.9 µM | > 100 µM
CC(C)(O)c1cc(Nc2cc(Oc3cn(C4CC4)nc3C3CCOCC3)ccn2)ccn1 | > 100000 nM | > 100 µM | 21.3 µM | > 100 µM | > 100 µM | > 100 µM | > 100 µM | > 100 µM | 54000 nM | > 100 µM | > 100 µM | > 100 µM | 36.2 µM | > 100 µM | 22 µM | > 100 µM | > 100000 nM | > 100 µM | 63.1 µM | > 100 µM
CN(Cc1cnc2nc(N)nc(N)c2n1)c1c(Cl)cc(C(=O)NC(CCC(=O)O)C(=O)O)cc1Cl (stereo not drawn) | < 10 nM | > 100 µM | 1.49 µM | > 100 µM | < 0.01 µM | > 100 µM | 0.0745 µM | > 100 µM | < 10 nM | > 100 µM | < 0.01 µM | 0.0242 µM | < 0.01 µM | > 100 µM | 0.173 µM | > 100 µM | < 13.7 nM | > 100 µM | 0.0994 µM | > 100 µM
O=C(O)CCN1C(=S)CSC1=S |  | > 100 µM |  | > 100 µM |  | > 100 µM |  | > 100 µM |  |  |  | > 100 µM |  | > 100 µM |  | > 100 µM |  | > 100 µM |  | > 100 µM
COC(=O)C1=C(O)c2cc(OC)c(OC)c(OC)c2C(c2ccc3c(c2)OCO3)[C@@H]1C(=O)OC (stereo partly drawn) |  | 5.52 µM |  | > 100 µM |  | > 100 µM |  | > 100 µM |  | > 100 µM |  | > 100 µM |  | > 100 µM |  | > 100 µM |  | > 100 µM |  | 19.2 µM
Cc1c(-c2ccc(-c3ccccc3F)cc2)nc2ccc(F)cc2c1C(=O)O | 95.9 nM and 500 nM | 25.6 µM and 110 µM and 29.9 µM | 27.7 µM | 88.6 µM | 2.63 µM and 5.25 µM | 80.6 µM and 280 µM | 38.3 µM and 29.4 µM | 216 µM and 209 µM | 1850 nM and 2650 nM | 78.9 µM and 105 µM | 3.34 µM | 105 µM and 109 µM | 0.5 µM | 78.7 µM and 124 µM | 36.7 µM and 81.6 µM | 248 µM and 316 µM | 645 nM and 889 nM | 109 µM and 198 µM |  | 181 µM and 647 µM
CCOC(=O)c1sc(NC(=O)COc2ccc(/C=C3\CCc4cc(OC)ccc4C3=O)cc2)nc1C | 11700 nM | 23.9 µM | 1.18 µM | 4.61 µM | 4.66 µM | 21 µM | 13.3 µM | 27.3 µM | 1780 nM | 9.64 µM | 11.1 µM | 31.6 µM | 12.9 µM | 25.6 µM | 6.73 µM | 24.3 µM | 7130 nM | 21.5 µM | 13.2 µM | 30.1 µM
CC(=O)/C(=N\N=C(N)N)c1ccccc1 |  | > 100 µM |  | > 100 µM |  | > 100 µM |  | > 100 µM |  | > 100 µM |  | > 100 µM |  | > 100 µM |  | > 100 µM |  | > 100 µM |  | > 100 µM
O=C1C=C(NCCc2ccccc2)c2ccccc2C1=O |  | 4.46 µM |  | 29.5 µM |  | 3.37 µM |  | 4.61 µM |  | 11.4 µM |  | 21.8 µM |  | 18 µM |  | 3.14 µM |  | 8.72 µM |  | 10.1 µM
CCOC(=O)C(Cc1cc(OC)c(CC(C(=O)OCC)C(=O)OCC)cc1OC)C(=O)OCC |  | > 100 µM |  | 83.8 µM |  | > 100 µM |  | > 100 µM |  | > 100 µM |  | > 100 µM |  | > 100 µM |  | 57.6 µM |  | > 100 µM |  | > 100 µM
Cc1cccc(C=NC23CC4CC(CC(C4)C2)C3)c1 |  | > 100 µM |  | > 100 µM |  | > 100 µM |  | > 100 µM |  | > 100 µM |  | > 100 µM |  | > 100 µM |  | > 100 µM |  | > 100 µM |  | > 100 µM
O=C(CC1(O)CCCCC1)OC1CCCC1 |  | > 100 µM |  | > 100 µM |  | > 100 µM |  | > 100 µM |  | > 100 µM |  | > 100 µM |  | > 100 µM |  | > 100 µM |  | > 100 µM |  | > 100 µM
